The compounds below were run against human PDE10A (Homo sapiens (Human), UniProt Q9Y233) (assay: human PDE10A full length Scintillation Proximity Assay (SPA)). Conditions: 50 nM cGMP and 50 nM [3H]-cGMP, 20 minutes at room temperature.
Assay type: biochemical
Experimental: The following test was carried out in order to determine the activity of the compounds of the present invention. PDE10 activity of the compounds of the present invention was determined using a Scintillation Proximity Assay (SPA)-based method similar to the one previously described (Fawcett, L. et al., ProcNatl Acad Sci USA (2000) 97(7):3702-3707).
The human PDE10A full length assay was performed in 96-well micro titer plates. The reaction mixture of 50 μl contained 20 mM HEPES pH=7.5/10 mM MgCl2/0.05 mg/ml BSA (Sigma cat. # A-7906), 50 nM cGMP (Sigma, cat. # G6129) and 50 nM [3H]-cGMP (GE Healthcare, cat. # TRK392 S. A. 13.2 Ci/mmol), 3.75 ng/well PDE10A enzyme (Enzo Life Science, Lausen, Switzerland cat # SE-534) with or without a specific test compound. A range of concentrations of the potential inhibitor was used to generate data for calculating the concentration of inhibitor resulting in 50% of the effect (e.g. IC50, the concentration of the competitor inhibiting PDE10A activity by 50%). Non-specific activity was tested without the enzyme. The reaction was initiated by the addition of the substrate solution (cGMP and [3H]-cGMP) and allowed to progress for 20 minutes at room temperature. The reaction was terminated by adding 25 μl of YSi-SPA scintillation beads (GE Healthcare, cat. # RPNQ0150) in 18 mM zinc sulphate solution (stop reagent). After 1 h under shaking, the plate was centrifuged one minute at 170 g to allow beads to settle. Afterwards, radioactive counts were measured on a Perkin Elmer TopCount Scintillation plate reader.

Sequence of human PDE10A (Q9Y233 other isoform, or with tags, fused parts or gaps): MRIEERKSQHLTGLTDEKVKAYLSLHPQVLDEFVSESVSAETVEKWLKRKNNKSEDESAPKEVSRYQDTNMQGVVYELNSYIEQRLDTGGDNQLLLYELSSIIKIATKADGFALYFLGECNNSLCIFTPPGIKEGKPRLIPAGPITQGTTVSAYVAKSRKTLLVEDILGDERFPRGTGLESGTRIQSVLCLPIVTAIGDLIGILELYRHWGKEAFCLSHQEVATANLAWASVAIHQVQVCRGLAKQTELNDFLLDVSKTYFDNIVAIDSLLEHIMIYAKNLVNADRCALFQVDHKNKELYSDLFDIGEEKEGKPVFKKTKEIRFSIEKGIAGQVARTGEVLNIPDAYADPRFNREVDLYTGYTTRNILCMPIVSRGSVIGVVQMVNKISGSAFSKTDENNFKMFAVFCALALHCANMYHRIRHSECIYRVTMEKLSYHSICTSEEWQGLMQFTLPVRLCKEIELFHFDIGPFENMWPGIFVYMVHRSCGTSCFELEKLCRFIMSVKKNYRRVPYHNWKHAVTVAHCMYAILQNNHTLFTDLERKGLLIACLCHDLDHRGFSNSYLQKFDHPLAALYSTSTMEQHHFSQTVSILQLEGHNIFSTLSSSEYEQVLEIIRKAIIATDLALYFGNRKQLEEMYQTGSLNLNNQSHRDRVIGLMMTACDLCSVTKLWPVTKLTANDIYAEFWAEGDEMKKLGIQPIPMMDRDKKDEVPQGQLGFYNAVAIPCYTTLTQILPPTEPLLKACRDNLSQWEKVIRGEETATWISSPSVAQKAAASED

| SMILES | IC50 |
| --- | --- |
| Cc1nc2ccc(C#Cc3nc(-c4ccccc4)cn3C)nn2c1CO [Example 3, (2-Methyl-6-((1-methyl-4-phenyl-1H-imidazol-2-yl)ethynyl)imidazo[1,2-b]pyridazin-3-yl)methanol] | 1 nM |
| Cc1nn2ccc(C#Cc3nc(-c4ccccc4)cn3C)nc2c1C [Example 4, 2,3-Dimethyl-5-((1-methyl-4-phenyl-1H-imidazol-2-yl)ethynyl)pyrazolo[1,5-a]pyrimidine] | 1.5 nM |
| Cc1c(C(F)F)nc2ccc(C#Cc3nc(-c4ccccc4)cn3C)nn12 [Example 7, 2-(Difluoromethyl)-3-methyl-6-((1-methyl-4-phenyl-1H-imidazol-2-yl)ethynyl)imidazo[1,2-b]pyridazine] | 46.6 nM |
| Cc1nc2ccc(/C=C/c3nc(-c4ccccc4)nn3C)nn2c1C [Example 11, (E)-2,3-Dimethyl-6-(2-(1-methyl-3-phenyl-1H-1,2,4-triazol-5-yl)vinyl)imidazo[1,2-b]pyridazine] | 1.3 nM |
| Cc1nc2c(C)c(C)c(CCc3nc(-c4ccccc4)cn3C)nn2c1C [Example 14, 2,3,7,8-Tetramethyl-6-(2-(1-methyl-4-phenyl-1H-imidazol-2-yl)ethyl)imidazo[1,2-b]pyridazine] | 10.8 nM |
| Cc1nn2ccc(CCc3nc(-c4ccccc4)cn3C)nc2c1C [Example 16, 2,3-Dimethyl-5-(2-(1-methyl-4-phenyl-1H-imidazol-2-yl)ethyl)pyrazolo[1,5-a]pyrimidine] | 2.4 nM |
| Cc1c(C(F)(F)F)nc2ccc(CCc3nc(-c4ccccc4)cn3C)nn12 [Example 17, 3-Methyl-6-(2-(1-methyl-4-phenyl-1H-imidazol-2-yl)ethyl)-2-(trifluoromethyl)imidazo[1,2-b]pyridazine] | 20.5 nM |
| Cn1cc(-c2ccccc2)nc1CCc1ccc2nc(C(F)(F)F)cn2n1 [Example 20, 6-(2-(1-Methyl-4-phenyl-1H-imidazol-2-yl)ethyl)-2-(trifluoromethyl)imidazo[1,2-b]pyridazine] | 82.8 nM |
| Cc1nc2ccc(CCc3nc(-c4ccccc4)nn3C)nn2c1C [Example 21, 2,3-Dimethyl-6-(2-(1-methyl-3-phenyl-1H-1,2,4-triazol-5-yl)ethyl)imidazo[1,2-b]pyridazine] | 27.7 nM |
| Cc1c(C#N)nc2ccc(CCc3nc(-c4ccccc4)cn3C)nn12 [Example 22, 3-Methyl-6-[2-(1-methyl-4-phenyl-1H-imidazol-2-yl)-ethyl]-imidazo[1,2-b]pyridazine-2-carbonitrile] | 5.4 nM |
| Cc1nc2ccc(CCc3nc(-c4ccncc4)cn3C)nn2c1C [Example 25, 2,3-Dimethyl-6-(2-(1-methyl-4-(pyridin-4-yl)-1H-imidazol-2-yl)ethyl)imidazo[1,2-b]pyridazine] | 32.3 nM |
| Cc1nc2ccc(CCc3nc(-c4cncnc4)cn3C)nn2c1C [Example 26, 2,3-Dimethyl-6-(2-(1-methyl-4-(pyrimidin-5-yl)-1H-imidazol-2-yl)ethyl)imidazo[1,2-b]pyridazine] | 98.5 nM |
| Cc1nc2ccc(CCc3nc(-c4ccccn4)cn3C)nn2c1C [Example 27, 2,3-Dimethyl-6-(2-(1-methyl-4-(pyridin-2-yl)-1H-imidazol-2-yl)ethyl)imidazo[1,2-b]pyridazine] | 3.3 nM |
| Cc1nc2ccc(CCc3nc(-c4cnccn4)cn3C)nn2c1C [Example 29, 2,3-Dimethyl-6-(2-(1-methyl-4-(pyrazin-2-yl)-1H-imidazol-2-yl)ethyl)imidazo[1,2-b]pyridazine] | 33.2 nM |
| Cc1cc(CCc2nc(-c3ccccn3)cn2C)nn2c(C)c(C(F)(F)F)nc12 [Example 30, 3,8-Dimethyl-6-(2-(1-methyl-4-(pyridin-2-yl)-1H-imidazol-2-yl)ethyl)-2-(trifluoromethyl)imidazo[1,2-b]pyridazine] | 3.7 nM |
| Cc1nc2ccc(OCc3nc(-c4ccccc4)cn3C)nn2c1C [Example 32, 2,3-Dimethyl-6-((1-methyl-4-phenyl-1H-imidazol-2-yl)methoxy)imidazo[1,2-b]pyridazine] | 7.2 nM |
| Cc1nc2ccc(OCc3nc(-c4ccccc4)nn3C)nn2c1C [Example 33, 2,3-Dimethyl-6-((1-methyl-3-phenyl-1H-1,2,4-triazol-5-yl)methoxy)imidazo[1,2-b]pyridazine] | 51.6 nM |

The next lines start with the values.

| IC50 | SMILES |
| --- | --- |
| 1.9 nM | Cn1cc(-c2ccccc2)nc1C#Cc1ccc2nc(C3CC3)c(CO)n2n1 [Example 6, (2-Cyclopropyl-6-((1-methyl-4-phenyl-1H-imidazol-2-yl)ethynyl)imidazo[1,2-b]pyridazin-3-yl)methanol] |
| 1 nM | Cn1cc(-c2ccccc2)nc1C#Cc1ccc2nc(C(F)(F)F)cn2n1 [Example 8, 6-(1-Methyl-4-phenyl-1H-imidazol-2-ylethynyl)-2-trifluoromethyl-imidazo[1,2-b]pyridazine] |
| 12 nM | Cc1c(C2CC2)nc2ccc(C#Cc3nc(-c4ccccc4)cn3C)nn12 [Example 10, 2-Cyclopropyl-3-methyl-6-((1-methyl-4-phenyl-1H-imidazol-2-yl)ethynyl)imidazo[1,2-b]pyridazine] |
| 13.8 nM | Cc1c(C#N)nc2ccc(/C=C/c3nc(-c4ccccc4)cn3C)nn12 [Example 12, (E)-3-methyl-6-(2-(1-methyl-4-phenyl-1H-imidazol-2-yl)vinyl)imidazo[1,2-b]pyridazine-2-carbonitrile] |
| 3.4 nM | Cc1nc2ccc(CCc3nc(-c4ccccc4)cn3C)nn2c1CO [Example 15, (2-Methyl-6-(2-(1-methyl-4-phenyl-1H-imidazol-2-yl)ethyl)imidazo[1,2-b]pyridazin-3-yl)methanol] |
| 656 nM | Cn1cc(-c2ccccc2)nc1CCc1ccc2nc(C3CC3)c(CO)n2n1 [Example 18, (2-Cyclopropyl-6-(2-(1-methyl-4-phenyl-1H-imidazol-2-yl)ethyl)imidazo[1,2-b]pyridazin-3-yl)methanol] |
| 6.4 nM | Cc1c(C(F)F)nc2ccc(CCc3nc(-c4ccccc4)cn3C)nn12 [Example 19, 2-(Difluoromethyl)-3-methyl-6-(2-(1-methyl-4-phenyl-1H-imidazol-2-yl)ethyl)imidazo[1,2-b]pyridazine] |
| 9.2 nM | Cc1nc2ccc(CCc3nc(-c4ncccn4)cn3C)nn2c1C [Example 23, 2,3-Dimethyl-6-(2-(1-methyl-4-(pyrimidin-2-yl)-1H-imidazol-2-yl)ethyl)imidazo[1,2-b]pyridazine] |
| 1690 nM | Cc1nc2ccc(CCc3nc(-c4cccnc4)cn3C)nn2c1C [Example 24, 2,3-Dimethyl-6-(2-(1-methyl-4-(pyridin-3-yl)-1H-imidazol-2-yl)ethyl)imidazo[1,2-b]pyridazine] |
| 81.2 nM | Cc1nc2ccc(CCc3nc(-c4ccnnc4)cn3C)nn2c1C [Example 28, 2,3-Dimethyl-6-(2-(1-methyl-4-(pyridazin-4-yl)-1H-imidazol-2-yl)ethyl)imidazo[1,2-b]pyridazine] |
| 8 nM | CNC(=O)c1cc(CCc2nc(-c3ccccn3)cn2C)nn2c(C)c(C(F)(F)F)nc12 [Example 31, N,3-Dimethyl-6-(2-(1-methyl-4-(pyridin-2-yl)-1H-imidazol-2-yl)ethyl)-2-(trifluoromethyl)imidazo[1,2-b]pyridazine-8-carboxamide] |
| 1.7 nM | Cc1nc2c(C)c(C)c(OCc3nc(-c4ccccc4)cn3C)nn2c1C [Example 34, 2,3,7,8-Tetramethyl-6-((1-methyl-4-phenyl-1H-imidazol-2-yl)methoxy)imidazo[1,2-b]pyridazine] |

Reference: patent US10399985B2, “(Hetero)aryl imidazoles/pyrazoles for treatment of neurological disorders” (Hoffmann-La Roche Inc., priority 2014, dated 2019)
